Source: article PMC4648043, “Development of Small-Molecule Trypanosoma brucei N-Myristoyltransferase Inhibitors: Discovery and Optimisation of a Novel Binding Mode” (Chemmedchem, 2015)
Read-outs that look alike come from different tables or passages of the source.

Experiments:
hNMT = molecular target: T1, hNMT (Homo sapiens, UniProt P30419); assay: human NMT enzyme inhibition assay; type: biochemical; conditions: mean of two or more determinations
T1 sequence (P30419 1-496): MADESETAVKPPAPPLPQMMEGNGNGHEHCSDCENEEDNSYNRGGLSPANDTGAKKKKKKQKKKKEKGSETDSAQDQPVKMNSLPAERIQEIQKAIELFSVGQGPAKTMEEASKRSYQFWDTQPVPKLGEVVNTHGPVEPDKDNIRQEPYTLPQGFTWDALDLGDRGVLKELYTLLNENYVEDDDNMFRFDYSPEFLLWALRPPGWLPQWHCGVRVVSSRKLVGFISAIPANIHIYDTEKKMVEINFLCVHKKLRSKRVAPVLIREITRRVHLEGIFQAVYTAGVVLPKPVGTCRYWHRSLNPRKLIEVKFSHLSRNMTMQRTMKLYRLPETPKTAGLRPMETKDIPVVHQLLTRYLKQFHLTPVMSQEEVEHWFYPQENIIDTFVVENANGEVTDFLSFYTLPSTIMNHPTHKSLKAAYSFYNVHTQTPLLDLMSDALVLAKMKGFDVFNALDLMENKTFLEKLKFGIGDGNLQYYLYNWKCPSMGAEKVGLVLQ
Procedure: (§1) Parasite and NMT assays: These were carried out as described previously.[8–10]

TbNMT = molecular target: T2, TbNMT (Trypanosoma brucei brucei, UniProt Q388H8); assay: biochemical; type: biochemical; conditions: for IC50: mean of two or more determinations; for LE TbNMT (ligand efficiency): calculated as 0.6 ln(IC50)/(heavy atom count)
T2 sequence (Q388H8 1-446): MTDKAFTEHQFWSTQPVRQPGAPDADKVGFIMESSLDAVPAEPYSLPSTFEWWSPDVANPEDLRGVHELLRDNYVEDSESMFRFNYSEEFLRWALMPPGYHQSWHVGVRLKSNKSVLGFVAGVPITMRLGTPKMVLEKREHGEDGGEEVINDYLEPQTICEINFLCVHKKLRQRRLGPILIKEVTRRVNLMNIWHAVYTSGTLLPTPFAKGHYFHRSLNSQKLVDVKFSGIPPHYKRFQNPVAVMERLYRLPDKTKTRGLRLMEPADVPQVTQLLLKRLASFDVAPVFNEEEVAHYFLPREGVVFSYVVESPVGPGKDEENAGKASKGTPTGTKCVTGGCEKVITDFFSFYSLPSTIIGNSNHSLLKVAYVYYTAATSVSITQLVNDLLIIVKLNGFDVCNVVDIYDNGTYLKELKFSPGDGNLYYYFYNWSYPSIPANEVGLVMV
Procedure: as §1

T. brucei = T. brucei parasite growth assay; type: cell-based, Trypanosoma brucei; conditions: Trypanosoma brucei; mean of two or more determinations
Procedure: as §1

| Structure (SMILES) | IC50 (hNMT) [µM] | IC50 (TbNMT; read-out: IC50 TbNMT) [µM] | LE TbNMT (ligand efficiency) (TbNMT) | EC50 (T. brucei) [µM] | IC50 (TbNMT; IC50 TbNMT) [µM] | improvement in potency at TbNMT (TbNMT; relative to parent/starting compound) [fold] |
| --- | --- | --- | --- | --- | --- | --- |
| CNC(=O)CN1C(=O)COc2ccccc21 [Compound 20, N-Methyl-2-(3-oxo-2H-benzo[b][1,4]oxazin-4(3H)-yl)acetamide] | > 100 | > 100 |  |  |  |  |
| CCOC(=O)C(C)N1C(=O)COc2ccccc21 (stereo not drawn) [Compound 15, Ethyl 2-(3-oxo-2H-benzo[b][1,4]oxazin-4(3H)-yl)propanoate] | > 100 | > 100 |  |  |  |  |
| Cc1nc(CN2C(=O)COc3ccccc32)no1 [Compound 28, 4-((5-Methyl-1,2,4-oxadiazol-3-yl)methyl)-2H-benzo[b][1,4]oxazin-3(4H)-one] | > 100 | 7 | 0.40 |  |  |  |
| COc1cc(C2SCC(=O)N2c2ccccn2)ccc1O (stereo not drawn) [Compound 4, 2-(4-Hydroxy-3-methoxyphenyl)-3-(pyridin-2-yl)thiazolidin-4-one] | > 100 | > 100 |  |  |  |  |
| O=C1COc2ccccc2N1Cc1ccncc1 [Compound 26, 4-(Pyridin-4-ylmethyl)-2H-benzo[b][1,4]oxazin-3(4H)-one] | > 100 | > 100 |  |  |  |  |
| CC(C)Cc1nc(CN2C(=O)COc3ccccc32)no1 [Compound 29, 4-((5-Isobutyl-1,2,4-oxadiazol-3-yl)methyl)-2H-benzo[b][1,4]oxazin-3(4H)-one] | > 100 | 18 | 0.32 |  |  |  |
| Cc1noc(CN2C(=O)COc3ccccc32)n1 [Compound 27, 4-((3-Methyl-1,2,4-oxadiazol-5-yl)methyl)-2H-benzo[b][1,4]oxazin-3(4H)-one] | > 100 | > 100 |  |  |  |  |
| Cc1cc(CN2C(=O)C(C)Oc3ccccc32)no1 (stereo not drawn) [Compound 34, 2-Methyl-4-((5-methylisoxazol-3-yl)methyl)-2H-benzo[b][1,4]oxazin-3(4H)-one] | > 100 | > 100 |  |  |  |  |
| O=C1CSC(c2ccccn2)N1c1cccc(Cl)c1 (stereo not drawn) [Compound 7] | > 50 | 13 | 0.36 |  |  |  |
| Cc1cccc(CN2C(=O)COc3ccccc32)n1 [Compound 31, 4-((6-Methylpyridin-2-yl)methyl)-2H-benzo[b][1,4]oxazin-3(4H)-one] | 69 | 41 | 0.31 |  |  |  |
| COc1cc(C2SCC(=O)N2Cc2ccccn2)ccc1O (stereo not drawn) [Compound 13, 2-(4-Hydroxy-3-methoxyphenyl)-3-(pyridin-2-ylmethyl)thiazolidin-4-one] | > 100 |  | 0.42 | 14 | 0.27 | 20 |
| CN(C)C(=O)CN1C(=O)COc2ccccc21 [Compound 19, N,N-Dimethyl-2-(3-oxo-2H-benzo[b][1,4]oxazin-4(3H)-yl)acetamide] | > 100 | > 100 |  |  |  |  |
| CCOC(=O)CCN1C(=O)COc2ccccc21 [Compound 16, Ethyl 3-(3-oxo-2H-benzo[b][1,4]oxazin-4(3H)-yl)propanoate] | > 100 | 13 | 0.38 |  |  |  |
| Cc1cc(CN2C(=O)COc3cc(Br)ccc32)no1 [Compound 37, 7-Bromo-4-((5-methylisoxazol-3-yl)methyl)-2H-benzo[b][1,4]oxazin-3(4H)-one] | > 100 | 6.4 | 0.37 |  |  |  |
| O=C1CSC(c2ccccc2)N1Cc1ccccn1 (stereo not drawn) [Compound 12, 2-Phenyl-3-(pyridin-2-ylmethyl)thiazolidin-4-one] | > 100 | 5.9 | 0.39 | > 50 |  |  |
| O=C1CSC(c2ccccn2)N1c1ccc2ccccc2c1 (stereo not drawn) [Compound 8] | > 100 | > 100 |  |  |  |  |

| Structure (SMILES) | IC50 (hNMT) [µM] | IC50 (TbNMT; read-out: IC50 TbNMT) [µM] | LE TbNMT (ligand efficiency) (TbNMT) | EC50 (T. brucei) [µM] | IC50 (TbNMT; IC50 TbNMT) [µM] | improvement in potency at TbNMT (TbNMT; relative to parent/starting compound) [fold] |
| --- | --- | --- | --- | --- | --- | --- |
| O=C(CCN1C(=O)COc2ccccc21)N1CCCC1 [Compound 17, 4-(3-Oxo-3-(pyrrolidin-1-yl)propyl)-2H-benzo[b][1,4]oxazin-3(4H)-one] | > 100 | 11 | 0.34 |  |  |  |
| O=C1CSC(c2ccccn2)N1c1ccc(Cl)cc1 (stereo not drawn) [Compound 10, 3-(4-Chlorophenyl)-2-(pyridin-2-yl)thiazolidin-4-one] | > 100 | > 100 |  | > 50 |  |  |
| O=C1COc2ccccc2N1Cc1nc2ccccc2o1 [Compound 22, 4-(Benzo[d]oxazol-2-ylmethyl)-2H-benzo[b][1,4]oxazin-3(4H)-one] | > 100 | 24 | 0.31 |  |  |  |
| Cc1cc(CN2C(=O)COc3cc(Cl)ccc32)no1 [Compound 36, 7-Chloro-4-((5-methylisoxazol-3-yl)methyl)-2H-benzo[b][1,4]oxazin-3(4H)-one] | > 100 | 7.1 | 0.37 |  |  |  |
| Cc1cc(CN2C(=O)COc3ccc(Cl)cc32)no1 [Compound 35, 6-Chloro-4-((5-methylisoxazol-3-yl)methyl)-2H-benzo[b][1,4]oxazin-3(4H)-one] | > 100 | > 100 |  |  |  |  |
| Cn1ccc(CN2C(=O)COc3ccccc32)n1 [Compound 32, 4-((1-Methyl-1H-pyrazol-3-yl)methyl)-2H-benzo[b][1,4]oxazin-3(4H)-one] | > 100 | 80 |  |  |  |  |
| O=C1CSC(c2ccccn2)N1c1ccccc1 (stereo not drawn) [Compound 9] | 66 | 31 | 0.35 |  |  |  |
| O=C1COc2ccccc2N1Cc1ccccn1 [Compound 25, 4-(Pyridin-2-ylmethyl)-2H-benzo[b][1,4]oxazin-3(4H)-one] | > 100 | 22 | 0.38 |  |  |  |
| CN(C)C(=O)CCN1C(=O)COc2ccccc21 [Compound 18, N,N-Dimethyl-3-(3-oxo-2H-benzo[b][1,4]oxazin-4(3H)-yl)propanamide] | > 100 | 50 |  |  |  |  |
| CC(C)Cc1cc(CN2C(=O)COc3ccccc32)no1 [Compound 30, 4-((5-Isobutylisoxazol-3-yl)methyl)-2H-benzo[b][1,4]oxazin-3(4H)-one] | 30 | 9 | 0.34 |  |  |  |
| CCN1C(=O)CSC1c1ccc(O)c(OC)c1 (stereo not drawn) [Compound 3, 3-Ethyl-2-(4-hydroxy-3-methoxyphenyl)thiazolidin-4-one] | > 100 | > 100 |  |  |  |  |
| COc1cccc(C2SCC(=O)N2Cc2ccco2)c1 (stereo not drawn) [Compound 5, 3-(Furan-2-ylmethyl)-2-(3-methoxyphenyl)thiazolidin-4-one] | > 100 | > 100 |  |  |  |  |
| Cc1nc(CN2C(=O)COc3ccccc32)cs1 [Compound 24, 4-((2-Methylthiazol-4-yl)methyl)-2H-benzo[b][1,4]oxazin-3(4H)-one] | > 100 | 44 | 0.33 |  |  |  |
| Cc1cc(CN2C(=O)COc3c(Br)cccc32)no1 [Compound 38, 8-Bromo-4-((5-methylisoxazol-3-yl)methyl)-2H-benzo[b][1,4]oxazin-3(4H)-one] | > 100 | 11 | 0.37 |  |  |  |
| Cc1cc(CN2C(=O)COc3ccccc32)no1 [Compound 23, 4-((5-Methylisoxazol-3-yl)methyl)-2H-benzo[b][1,4]oxazin-3(4H)-one] | > 100 | 2.9 | 0.43 |  |  |  |
| O=C(CN1C(=O)COc2ccccc21)N1CCCC1 [Compound 21, 4-(2-Oxo-2-(pyrrolidin-1-yl)ethyl)-2H-benzo[b][1,4]oxazin-3(4H)-one] |  | > 100 |  |  |  |  |
